Experimental data as given in US20070172423A1, “Composition and method for modulating vasculogenesis for angiogenesis” (priority 1998, published 2007).
One block for each substance: values may come before it.

Assays:
[1] = tested on: protease in AG1523 medium processing full-length PDGF-C; experiment: Protease inhibitor analysis of PDGF-C processing by AG1523 medium; format: biochemical, human; conditions: AG1523 serum-free medium, 37° C. overnight, immunoblot
Procedure: To elucidate the mechanism of the proteolysis of PDGF-C a protease inhibitor analysis was conducted. Various protease inhibitors (see Table 1, source: Sigma) were pre-incubated with 0.9 ml of AG1523 serum-free medium at room temperature for 30 minutes, then incubated with 0.2 ml of recombinant full-length PDGF-C (Sf9 serum-free medium) at 37° C. overnight. TCA-precipitated proteins were subjected to SDS-page under reducing conditions and then immunoblotted. Recombinant PDGF-C was detected using an anti-His6 epitope monoclonal antibody (C-terminal) (InVitrogen).

[2] = tested on: bovine aorta endothelial cells (BAEC); experiment: Cell migration assay, BAEC; format: cell-based; conditions: wounded monolayer, 20 hours, serum-free medium
Procedure: (§1) Cell migration assays were performed on growth arrested confluent HMVEC, BAEC or hSMC cells. Cell monolayers were wounded with a rubber policeman and washed with serum-free medium. Dishes were then incubated for 20 hours in serum-free medium containing VEGF165, PDGF-AA, (R&D Systems, Minneapolis USA) or PDGF-CC. Each assay included two dishes per condition and was repeated three times independently. Cells were photographed at 40× magnification, and migration percentage corresponding to the ratio between area of the cells and the total area of the wound (Biocom visiol@b 2000 version 4.52, San Diego). For HMVEC proliferation assay, cells were seeded in 96-well plates (5 wells per condition), and incubated with VEGF, PDGF-AA, or PDGF-CC (50 ng/ml) after serum starvation. After 7 days, viable cells were counted using the cell Titer-glo luminescent cell viability assay. For NIH-3T3 and hSMC proliferation assay, cells cultured in 96-well plates were serum-starved overnight, followed by treatment with growth factors at different concentrations. Two days later, cell numbers were counted and proliferation percentage calculated, using cells cultured in medium containing 10% serum as control. Aortic ring assay was performed as described 51. […] Aortic rings were analysed at day 9 of culturing. […]

HMVEC = HMVEC proliferation assay; format: cell-based, human; conditions: 50 ng/ml, 7 days
Procedure: as §1

aortic rings = experiment: Aortic ring assay; format: cell-based; conditions: for number of sprouting microvessels: day 9 of culturing, versus control
Procedure: Cell migration assays were performed on growth arrested confluent HMVEC, BAEC or hSMC cells. Cell monolayers were wounded with a rubber policeman and washed with serum-free medium. Dishes were then incubated for 20 hours in serum-free medium containing VEGF165, PDGF-AA, (R&D Systems, Minneapolis USA) or PDGF-CC. Each assay included two dishes per condition and was repeated three times independently. Cells were photographed at 40× magnification, and migration percentage corresponding to the ratio between area of the cells and the total area of the wound (Biocom visiol@b 2000 version 4.52, San Diego). For HMVEC proliferation assay, cells were seeded in 96-well plates (5 wells per condition), and incubated with VEGF, PDGF-AA, or PDGF-CC (50 ng/ml) after serum starvation. After 7 days, viable cells were counted using the cell Titer-glo luminescent cell viability assay. For NIH-3T3 and hSMC proliferation assay, cells cultured in 96-well plates were serum-starved overnight, followed by treatment with growth factors at different concentrations. Two days later, cell numbers were counted and proliferation percentage calculated, using cells cultured in medium containing 10% serum as control. Aortic ring assay was performed as described 51. Briefly, one-millimeter long aortic rings were embedded in gels of rat tail interstitial collagen and cultured at 37° C., supplemented with different growth factors (50 ng/ml). Aortic rings were analysed at day 9 of culturing. Experiments included three explants per condition and were repeated at least twice. Aortic rings were photographed at 25× magnification.
Although PDGFR-α is expressed on endothelial cells (Edelberg et al., Journal of Clinical Investigation, 1998 102:837-43; Smits et al., Growth Factors, 1989 2:1-8; Bar et al., Endocrinology, 1989 124:1841-8; Beitz et al., Proc Natl Acad Sci USA, 1991 88:2021-5; Marx et al., J Clin Invest, 1994 93:131-9; Shinbrot et al., Dev. Dyn., 1994 199:169-175), little is known about the functional consequence of PDGFR-α signaling in these cells. […] We also tested the effect of PDGF-CC on cultured aortic rings, as this assay allows assessment of the outgrowth of microvessels from an intact vessel in vitro (Blacher et al., Angiogenesis, 2001 4:133-42). Results are graphically represented as the number of microvessels and the distance over which they grew out from the aortic ring. Each experiment included three explants per condition and was repeated at least twice. At day 9 after culturing, microvessels and the distance of their outgrowth were quantified and evaluated using Student's t test. In baseline conditions, only a small number of microvessels sprouted from the aortic rings—most of them over very short distances (0.25 mm from the aortic ring)—and only a small fraction (<5%) growing out over longer distances (>0.5 mm from the aortic ring, FIG. 41a). VEGF increased not only the number of sprouting microvessels (P<0.001 at all concentrations versus control), but also the distance over which they grew out (P<0.05 at all concentrations versus control; FIG. 41b,f). At 30 ng/ml, PDGF-CC increased the number of microvessels (P<0.001 versus control, FIG. 41e,g) and increased the distance of vessel outgrowth at 5 ng/ml (P<0.01 versus control, FIG. 41g). […] A similar bell-shaped dose-response relationship has been documented for other members of the VEGF/PDGF-superfamily (Jin et al., J Mol Neurosci, 2000 14:197-203). PDGF-AA, however, had no effect on the number of microvessels, although it increased the distance of vessel outgrowth at 5 ng/ml (P<0.01 versus control, FIG. 41h). Thus, PDGF-CC mobilized EC migration in cultured cells and promoted microvessel sprouting in the aortic ring assay.
The mitogenic and chemotactic effect of PDGF-CC was then tested on SMCs and perivascular fibroblast cells, and the effect of PDGF-CC was compared to that of VEGF and PDGF-AA in both cultured cells and the aortic ring assay (Blacher et al., Angiogenesis, 2001 4:133-42). […]

hSMC [3] = experiment: Cell migration assay, hSMC; format: cell-based, human; conditions: wounded monolayer, 20 hours
Procedure: as §1, with “For HMVEC proliferation assay, cells were seeded in 96-well plates (5 wells per condition), and incubated with VEGF, PDGF-AA, or PDGF-CC (50 ng/ml) after serum starvation.” left out, “For NIH-3T3 and hSMC proliferation assay, cells cultured in 96-well plates were serum-starved overnight, followed by treatment with growth factors at different concentrations.” left out, “control.” for “control. Aortic ring assay was performed as described 51.”
The mitogenic and chemotactic effect of PDGF-CC was then tested on SMCs and perivascular fibroblast cells, and the effect of PDGF-CC was compared to that of VEGF and PDGF-AA in both cultured cells and the aortic ring assay (Blacher et al., Angiogenesis, 2001 4:133-42). […] In the aortic ring assay, we quantified the growth and emigration of perivascular fibroblasts from the intact vessel using computer-assisted image analysis after treatment with VEGF and different PDGFs at different concentrations. […]

NIH-3T3 fibroblast cells = experiment: NIH-3T3 proliferation assay; format: cell-based; conditions: two days, different concentrations
Procedure: as §1

hSMC [4] = experiment: hSMC proliferation assay; format: cell-based, human; conditions: two days, different concentrations
Procedure: as §1

[5] = biological target: T1, human PDGF receptor alpha (Homo sapiens, UniProt P16234); experiment: Competition with 125I-PDGF-BB for binding to PAE-1 cells expressing PDGF alpha-receptor; conditions: 5 ng/ml 125I-PDGF-BB tracer, on ice 90 minutes
T1 construct: expressed in transfected cells
Procedure: Next, full length and truncated PDGF-C were tested for their capacity to bind to human PDGF receptors alpha and beta by analyzing their abilities to compete with PDGF-BB for binding to PDGF receptors. The binding experiments were performed on porcine aortic endothelial-1 (PAE-1) cells stably expressing the human PDGF receptors alpha and beta (Eriksson et al., EMBO J, 1992, 11, 543-550). Binding experiments were performed essentially as in Heldin et al. (EMBO J, 1988, 7:1387-1393). Different concentrations of human full-length and truncated PDGF-C, or human PDGF-BB were mixed with 5 ng/ml of ^125I-PDGF-BB in binding buffer (PBS containing 1 mg/ml of bovine serum albumin). Aliquots were incubated with the receptor expressing PAE-1 cells plated in 24-well culture dishes on ice for 90 minutes. After three washes with binding buffer, cell-bound 125]-PDGF-BB was extracted by lysis of cells in 20 mM Tris-HCl, pH 7.5, 10% glycerol, 1% Triton X-100. The amount of cell bound radioactivity was determined in a gamma-counter. A standard curve for the binding of ^125I-labeled PDGF BB homodimers to PAE-1 cells expressing PDGF alpha-receptor is shown in FIG. 18.

[6] = tested on: human bone marrow-derived AC133+CD34+ cells; experiment: Human bone marrow cell adherence and differentiation assay; format: cell-based; conditions: 50 ng/ml
Procedure: Enriched human BM derived AC133+CD34+ cells (Clonetics) at 10^5/ml were cultured for 3 days in HPGM (Clonetics) in a 6-well plate (Becton Dickinson). Cells were then seeded in collagen coated 12-well plates in EBM (Clonetics) medium containing 4% FCS and VEGF165 (R&D Systems) or PDGF-CC (50 ng/ml each). Growth factors were added every two days and media were refreshed at 75% every four days. For adherence assay, 2.5×10^4 of non-adherent cells/ml were cultured in the same condition on chamber slides coated with collagen, or in 96-well plate coated with 0.3% gelatin in PBS. Cells were then washed three times with PBS, fixed and stained with May-Grünwald Giemsa (Sigma) after two weeks of culture on chamber slides (Becton Dickinson). The number of viable cells was estimated by ATP quantification using cellTiter-glo luminescent cell viability assay (Promega) according to the manufacturer's instructions. For cell surface marker staining, cells (2×10^4/well) cultured on collagen-coated culture slides for two or four weeks were fixed (45 min, 25° C.) and permeabilized (45 min, 25° C.) using a Intrastain Kit (DAKO), and then labeled with CD31-FITC (Becton Dickinson), CD144-FITC (Pharmingen), CD34-FITC (Becton Dickinson) or SMC-Actin CY3 (Sigma). Single or double-labeled cells were analyzed using laser confocal immunofluorescence microscopy.
Upon stimulation by growth factors or cytokines, bone marrow stem/progenitor cells can differentiate into ECs and SMCs and thereby contribute to angio/arteriogenesis (Orlic et al., Nature, 2001 410:701-5; Kawamoto et al., Circulation, 2001 103:634-7; Asahara et al., Circ Res, 1999 85:221-8). The potential role of PDGF-CC in the differentiation of bone marrow progenitors into vascular cells has, however, not been investigated thus far. We therefore cultured human bone marrow-derived AC133^+CD34^+ cells—a population enriched for stem/progenitor cells (Miraglia et al., Blood, 1997 90:5013-21; Yu et al., J Biol Chem, 2002 277:20711-6; Donnelly et al., Leuk Lymphoma, 2001 40:221-34)—and stimulated them with PDGF-CC, using VEGF as a control (50 ng/ml each).

[7] = tested on: human microvascular endothelial cells (HMVEC); experiment: Cell migration assay, HMVEC; format: cell-based; conditions: wounded monolayer, 20 hours, serum-free medium
Procedure: as §1

T1 sequence (P16234 24-1089): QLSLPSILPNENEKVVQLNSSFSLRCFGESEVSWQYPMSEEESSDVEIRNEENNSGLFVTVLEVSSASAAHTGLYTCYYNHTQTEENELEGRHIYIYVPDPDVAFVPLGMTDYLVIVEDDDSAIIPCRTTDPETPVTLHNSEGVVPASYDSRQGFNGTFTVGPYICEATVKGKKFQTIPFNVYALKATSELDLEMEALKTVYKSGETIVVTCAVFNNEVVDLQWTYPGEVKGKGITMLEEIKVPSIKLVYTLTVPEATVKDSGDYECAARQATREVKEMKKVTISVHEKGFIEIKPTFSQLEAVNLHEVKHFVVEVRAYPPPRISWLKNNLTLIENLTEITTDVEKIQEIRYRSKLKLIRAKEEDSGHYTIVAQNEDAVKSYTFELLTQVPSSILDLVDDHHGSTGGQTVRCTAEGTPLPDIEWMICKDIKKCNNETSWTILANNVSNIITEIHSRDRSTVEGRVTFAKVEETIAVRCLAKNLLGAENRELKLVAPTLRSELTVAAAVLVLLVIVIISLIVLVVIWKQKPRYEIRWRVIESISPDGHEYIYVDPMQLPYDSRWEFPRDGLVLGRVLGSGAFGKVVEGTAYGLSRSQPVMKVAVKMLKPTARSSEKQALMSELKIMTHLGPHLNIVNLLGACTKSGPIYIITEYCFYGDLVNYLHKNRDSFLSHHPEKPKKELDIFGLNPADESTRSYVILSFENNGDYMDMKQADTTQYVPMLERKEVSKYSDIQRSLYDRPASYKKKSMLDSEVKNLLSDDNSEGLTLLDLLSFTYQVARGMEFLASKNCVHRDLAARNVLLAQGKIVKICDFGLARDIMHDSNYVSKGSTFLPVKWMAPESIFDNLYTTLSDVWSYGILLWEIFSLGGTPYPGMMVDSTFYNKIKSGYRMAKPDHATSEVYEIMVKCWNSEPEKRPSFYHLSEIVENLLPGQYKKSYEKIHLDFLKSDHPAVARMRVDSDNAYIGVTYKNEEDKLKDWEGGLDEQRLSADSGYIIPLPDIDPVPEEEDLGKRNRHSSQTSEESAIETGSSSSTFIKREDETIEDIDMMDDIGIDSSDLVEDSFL

Substance: Aprotinin
inhibition of proteolytic processing of full-length PDGF-C [1]: capacity to inhibit

Substance: PDGF-AA: PDGF A-chain homodimer (R&D Systems), PDGFR-α ligand used as control
migration of BAEC [2]: no effect
EC proliferation (HMVEC): no effect
distance of vessel outgrowth (aortic rings; 5 ng/ml, day 9, versus control): increased
number and emigration of perivascular fibroblast-like cells (aortic rings; day 9, versus control): intermediate effect
number of sprouting microvessels (aortic rings): no effect
hSMC migration (hSMC [3]): stimulated
proliferation of cultured NIH-3T3 fibroblast cells (NIH-3T3 fibroblast cells): stimulated
proliferation of cultured hSMC cells (hSMC [4]): stimulated

competition for binding to the PDGF alpha-receptor [5]: competed efficiently
Substance: PDGF-BB: human PDGF B-chain homodimer, unlabeled competitor and 125I tracer [reference compound]

Substance: VEGF
SMA expression ([6]; four weeks): remained SMA negative
expression of CD144 and CD31 ([6]; four weeks): still CD144 and CD31 positive
adherence of AC133+CD34+ cells ([6]; two weeks of stimulation): enhanced
expression of EC surface markers CD144 (VE-cadherin) and CD31 (PECAM) ([6]; two weeks of stimulation): induced
expression of smooth muscle cell marker SMA ([6]; two weeks of stimulation): did not become SMA positive
migration of HMVECs [7]: stimulated
EC proliferation (HMVEC): highly stimulated
distance over which microvessels grew out (aortic rings; all concentrations, day 9, versus control): increased
number and emigration of perivascular fibroblast-like cells (aortic rings; day 9, versus control): in effective
number of sprouting microvessels (aortic rings): increased
hSMC migration (hSMC [3]): no effect
